{
  "source": "paper PMC6440935",
  "about": "“Characterization and phase I study of CLR457, an orally bioavailable pan-class I PI3-kinase inhibitor” (Investigational New Drugs, 2018)",
  "settings": "drug-related",
  "note": "Read-outs that look alike come from different tables or passages of the source.",
  "data": [
    {"smiles": "C[C@H]1OC(=O)N(c2cc(-c3cnc(N)nc3C(F)(F)F)nc(N3CCOCC3)n2)[C@H]1CO", "note": "[CLR457]", "values": [
      {"measurement": "Cough, Grade ≥ 3", "setting": "10 mg, N = 3", "result": "0 n (%)"},
      {"measurement": "Decreased appetite, All Grade", "setting": "10 mg, N = 3", "result": "0 n (%)"},
      {"measurement": "Decreased appetite, Grade ≥ 3", "setting": "10 mg, N = 3", "result": "0 n (%)"},
      {"measurement": "Decreased neutrophil count, All Grade", "setting": "10 mg, N = 3", "result": "0 n (%)"},
      {"measurement": "Decreased neutrophil count, Grade ≥ 3", "setting": "10 mg, N = 3", "result": "0 n (%)"},
      {"measurement": "Dehydration, All Grade", "setting": "10 mg, N = 3", "result": "0 n (%)"},
      {"measurement": "Dehydration, Grade ≥ 3", "setting": "10 mg, N = 3", "result": "0 n (%)"},
      {"measurement": "Diarrhea, All Grade", "setting": "10 mg, N = 3", "result": "0 n (%)"},
      {"measurement": "Diarrhea, Grade ≥ 3", "setting": "10 mg, N = 3", "result": "0 n (%)"},
      {"measurement": "Dry mouth, All Grade", "setting": "10 mg, N = 3", "result": "0 n (%)"},
      {"measurement": "Dry mouth, Grade ≥ 3", "setting": "10 mg, N = 3", "result": "0 n (%)"},
      {"measurement": "Dry skin, All Grade", "setting": "10 mg, N = 3", "result": "0 n (%)"},
      {"measurement": "Dry skin, Grade ≥ 3", "setting": "10 mg, N = 3", "result": "0 n (%)"},
      {"measurement": "Dysgeusia, All Grade", "setting": "10 mg, N = 3", "result": "0 n (%)"},
      {"measurement": "Dysgeusia, Grade ≥ 3", "setting": "10 mg, N = 3", "result": "0 n (%)"},
      {"measurement": "Fatigue, All Grade", "setting": "10 mg, N = 3", "result": "1 (33.3) n (%)"},
      {"measurement": "Fatigue, Grade ≥ 3", "setting": "10 mg, N = 3", "result": "0 n (%)"},
      {"measurement": "Headache, All Grade", "setting": "10 mg, N = 3", "result": "0 n (%)"},
      {"measurement": "Headache, Grade ≥ 3", "setting": "10 mg, N = 3", "result": "0 n (%)"},
      {"measurement": "Hyperglycemia, All Grade", "setting": "10 mg, N = 3", "result": "0 n (%)"},
      {"measurement": "Hyperglycemia, Grade ≥ 3", "setting": "10 mg, N = 3", "result": "0 n (%)"},
      {"measurement": "Hypomagnesaemia, All Grade", "setting": "10 mg, N = 3", "result": "0 n (%)"},
      {"measurement": "Hypomagnesaemia, Grade ≥ 3", "setting": "10 mg, N = 3", "result": "0 n (%)"},
      {"measurement": "Maculo-papular rash, All Grade", "setting": "10 mg, N = 3", "result": "0 n (%)"},
      {"measurement": "Maculo-papular rash, Grade ≥ 3", "setting": "10 mg, N = 3", "result": "0 n (%)"},
      {"measurement": "Nausea, All Grade", "setting": "10 mg, N = 3", "result": "1 (33.3) n (%)"},
      {"measurement": "Nausea, Grade ≥ 3", "setting": "10 mg, N = 3", "result": "0 n (%)"},
      {"measurement": "Pneumonitis, All Grade", "setting": "10 mg, N = 3", "result": "0 n (%)"},
      {"measurement": "Pneumonitis, Grade ≥ 3", "setting": "10 mg, N = 3", "result": "0 n (%)"},
      {"measurement": "Pruritus, All Grade", "setting": "10 mg, N = 3", "result": "0 n (%)"},
      {"measurement": "Pruritus, Grade ≥ 3", "setting": "10 mg, N = 3", "result": "0 n (%)"},
      {"measurement": "Pyrexia, All Grade", "setting": "10 mg, N = 3", "result": "0 n (%)"},
      {"measurement": "Pyrexia, Grade ≥ 3", "setting": "10 mg, N = 3", "result": "0 n (%)"},
      {"measurement": "Rash, All Grade", "setting": "10 mg, N = 3", "result": "0 n (%)"},
      {"measurement": "Rash, Grade ≥ 3", "setting": "10 mg, N = 3", "result": "0 n (%)"},
      {"measurement": "Stomatitis, All Grade", "setting": "10 mg, N = 3", "result": "0 n (%)"},
      {"measurement": "Stomatitis, Grade ≥ 3", "setting": "10 mg, N = 3", "result": "0 n (%)"},
      {"measurement": "Vomiting, All Grade", "setting": "10 mg, N = 3", "result": "0 n (%)"},
      {"measurement": "Vomiting, Grade ≥ 3", "setting": "10 mg, N = 3", "result": "0 n (%)"},
      {"measurement": "Weight decreased, All Grade", "setting": "10 mg, N = 3", "result": "0 n (%)"},
      {"measurement": "Weight decreased, Grade ≥ 3", "setting": "10 mg, N = 3", "result": "0 n (%)"},
      {"measurement": "Asthenia, Grade ≥ 3", "setting": "20 mg, N = 4", "result": "0 n (%)"},
      {"measurement": "Chills, All Grade", "setting": "20 mg, N = 4", "result": "0 n (%)"},
      {"measurement": "Chills, Grade ≥ 3", "setting": "20 mg, N = 4", "result": "0 n (%)"},
      {"measurement": "Colitis, All Grade", "setting": "20 mg, N = 4", "result": "0 n (%)"},
      {"measurement": "Colitis, Grade ≥ 3", "setting": "20 mg, N = 4", "result": "0 n (%)"},
      {"measurement": "Cough, All Grade", "setting": "20 mg, N = 4", "result": "0 n (%)"},
      {"measurement": "Cough, Grade ≥ 3", "setting": "20 mg, N = 4", "result": "0 n (%)"},
      {"measurement": "Decreased appetite, All Grade", "setting": "20 mg, N = 4", "result": "0 n (%)"},
      {"measurement": "Decreased appetite, Grade ≥ 3", "setting": "20 mg, N = 4", "result": "0 n (%)"},
      {"measurement": "Decreased neutrophil count, All Grade", "setting": "20 mg, N = 4", "result": "0 n (%)"},
      {"measurement": "Decreased neutrophil count, Grade ≥ 3", "setting": "20 mg, N = 4", "result": "0 n (%)"},
      {"measurement": "Dehydration, All Grade", "setting": "20 mg, N = 4", "result": "0 n (%)"},
      {"measurement": "Dehydration, Grade ≥ 3", "setting": "20 mg, N = 4", "result": "0 n (%)"},
      {"measurement": "Diarrhea, All Grade", "setting": "20 mg, N = 4", "result": "0 n (%)"},
      {"measurement": "Diarrhea, Grade ≥ 3", "setting": "20 mg, N = 4", "result": "0 n (%)"},
      {"measurement": "Dry mouth, All Grade", "setting": "20 mg, N = 4", "result": "0 n (%)"},
      {"measurement": "Dry mouth, Grade ≥ 3", "setting": "20 mg, N = 4", "result": "0 n (%)"},
      {"measurement": "Dry skin, All Grade", "setting": "20 mg, N = 4", "result": "0 n (%)"},
      {"measurement": "Dry skin, Grade ≥ 3", "setting": "20 mg, N = 4", "result": "0 n (%)"},
      {"measurement": "Dysgeusia, All Grade", "setting": "20 mg, N = 4", "result": "0 n (%)"},
      {"measurement": "Dysgeusia, Grade ≥ 3", "setting": "20 mg, N = 4", "result": "0 n (%)"},
      {"measurement": "Fatigue, All Grade", "setting": "20 mg, N = 4", "result": "1 (25.0) n (%)"},
      {"measurement": "Fatigue, Grade ≥ 3", "setting": "20 mg, N = 4", "result": "0 n (%)"},
      {"measurement": "Headache, All Grade", "setting": "20 mg, N = 4", "result": "0 n (%)"},
      {"measurement": "Headache, Grade ≥ 3", "setting": "20 mg, N = 4", "result": "0 n (%)"},
      {"measurement": "Hyperglycemia, All Grade", "setting": "20 mg, N = 4", "result": "0 n (%)"},
      {"measurement": "Hyperglycemia, Grade ≥ 3", "setting": "20 mg, N = 4", "result": "0 n (%)"},
      {"measurement": "Hypomagnesaemia, All Grade", "setting": "20 mg, N = 4", "result": "0 n (%)"},
      {"measurement": "Hypomagnesaemia, Grade ≥ 3", "setting": "20 mg, N = 4", "result": "0 n (%)"},
      {"measurement": "Maculo-papular rash, All Grade", "setting": "20 mg, N = 4", "result": "0 n (%)"},
      {"measurement": "Maculo-papular rash, Grade ≥ 3", "setting": "20 mg, N = 4", "result": "0 n (%)"},
      {"measurement": "Nausea, All Grade", "setting": "20 mg, N = 4", "result": "0 n (%)"},
      {"measurement": "Nausea, Grade ≥ 3", "setting": "20 mg, N = 4", "result": "0 n (%)"},
      {"measurement": "Pneumonitis, All Grade", "setting": "20 mg, N = 4", "result": "0 n (%)"},
      {"measurement": "Pneumonitis, Grade ≥ 3", "setting": "20 mg, N = 4", "result": "0 n (%)"},
      {"measurement": "Pruritus, All Grade", "setting": "20 mg, N = 4", "result": "0 n (%)"},
      {"measurement": "Pruritus, Grade ≥ 3", "setting": "20 mg, N = 4", "result": "0 n (%)"},
      {"measurement": "Pyrexia, All Grade", "setting": "20 mg, N = 4", "result": "0 n (%)"},
      {"measurement": "Pyrexia, Grade ≥ 3", "setting": "20 mg, N = 4", "result": "0 n (%)"},
      {"measurement": "Rash, All Grade", "setting": "20 mg, N = 4", "result": "1 (25.0) n (%)"},
      {"measurement": "Rash, Grade ≥ 3", "setting": "20 mg, N = 4", "result": "0 n (%)"},
      {"measurement": "Stomatitis, All Grade", "setting": "20 mg, N = 4", "result": "0 n (%)"},
      {"measurement": "Stomatitis, Grade ≥ 3", "setting": "20 mg, N = 4", "result": "0 n (%)"},
      {"measurement": "Vomiting, All Grade", "setting": "20 mg, N = 4", "result": "0 n (%)"},
      {"measurement": "Vomiting, Grade ≥ 3", "setting": "20 mg, N = 4", "result": "0 n (%)"},
      {"measurement": "Weight decreased, All Grade", "setting": "20 mg, N = 4", "result": "0 n (%)"},
      {"measurement": "Weight decreased, Grade ≥ 3", "setting": "20 mg, N = 4", "result": "0 n (%)"},
      {"measurement": "Asthenia, Grade ≥ 3", "setting": "40 mg, N = 5", "result": "0 n (%)"},
      {"measurement": "Chills, All Grade", "setting": "40 mg, N = 5", "result": "0 n (%)"},
      {"measurement": "Chills, Grade ≥ 3", "setting": "40 mg, N = 5", "result": "0 n (%)"},
      {"measurement": "Colitis, All Grade", "setting": "40 mg, N = 5", "result": "0 n (%)"},
      {"measurement": "Colitis, Grade ≥ 3", "setting": "40 mg, N = 5", "result": "0 n (%)"},
      {"measurement": "Cough, All Grade", "setting": "40 mg, N = 5", "result": "0 n (%)"},
      {"measurement": "Cough, Grade ≥ 3", "setting": "40 mg, N = 5", "result": "0 n (%)"},
      {"measurement": "Decreased appetite, All Grade", "setting": "40 mg, N = 5", "result": "1 (20.0) n (%)"},
      {"measurement": "Decreased appetite, Grade ≥ 3", "setting": "40 mg, N = 5", "result": "0 n (%)"}
    ]}
  ]
}
